Assay results reported in ChEMBL document CHEMBL4265969, “Design, synthesis and biological evaluation of (2S,3R,4R,5S,6R)-5-fluoro-6-(hydroxymethyl)-2-aryltetrahydro-2H-pyran-3,4-diols as potent and orally active SGLT dual inhibitors” (Bioorg Med Chem Lett, 2018).
The source made the active and inactive calls. No cut-off for these calls is given here.

Columns and labels:
[1] = Metabolic stability in human liver microsomes at 1 uM after 10 mins in presence of NADPH; format: ADME, microsome; settings: read-out: Stability
[2] = Metabolic stability in mouse liver microsomes at 1 uM after 10 mins in presence of NADPH; format: ADME, microsome; settings: read-out: Stability
[3] = Metabolic stability in rat liver microsomes at 1 uM after 10 mins in presence of NADPH; format: ADME, microsome; settings: read-out: Stability
[4] = Half life in Sprague-Dawley rat at 2 mg/kg, iv; format: ADME, organism-based; settings: in vivo
[5] = Clearance in Sprague-Dawley rat at 2 mg/kg, iv; format: ADME, organism-based; settings: in vivo
[6] = Volume of distribution at steady state in Sprague-Dawley rat at 2 mg/kg, iv; format: ADME, organism-based; settings: in vivo, read-out: Vdss
[7] = Half life in Sprague-Dawley rat at 10 mg/kg, po; format: ADME, organism-based; settings: in vivo
[8] = Cmax in Sprague-Dawley rat at 10 mg/kg, po; format: ADME, organism-based; parameters: dose 10 mg/kg, route oral; settings: in vivo
[9] = Tmax in Sprague-Dawley rat at 10 mg/kg, po; format: ADME, organism-based; settings: in vivo
[10] = AUC (0 to infinity) in Sprague-Dawley rat at 10 mg/kg, po; format: ADME, organism-based; parameters: dose 10 mg/kg, route oral, time infinity; settings: in vivo
[11] = Oral bioavailability in Sprague-Dawley rat at 10 mg/kg; format: ADME, organism-based; settings: in vivo
[12] = Half life in cynomolgus monkey at 2 mg/kg, iv; format: ADME, organism-based, Macaca fascicularis; settings: in vivo
[13] = Clearance in cynomolgus monkey at 2 mg/kg, iv; format: ADME, organism-based, Macaca fascicularis; settings: in vivo
[14] = Volume of distribution at steady state in cynomolgus monkey at 2 mg/kg, iv; format: ADME, organism-based, Macaca fascicularis; settings: in vivo, read-out: Vdss
[15] = Half life in cynomolgus monkey at 10 mg/kg, po; format: ADME, organism-based, Macaca fascicularis; settings: in vivo
[16] = Cmax in cynomolgus monkey at 10 mg/kg, po; format: ADME, organism-based, Macaca fascicularis; parameters: dose 10 mg/kg, route oral; settings: in vivo
[17] = Tmax in cynomolgus monkey at 10 mg/kg, po; format: ADME, organism-based, Macaca fascicularis; settings: in vivo
[18] = AUC (0 to infinity) in cynomolgus monkey at 10 mg/kg, po; format: ADME, organism-based, Macaca fascicularis; parameters: dose 10 mg/kg, time infinity, route oral; settings: in vivo
[19] = Oral bioavailability in cynomolgus monkey at 10 mg/kg; format: ADME, organism-based, Macaca fascicularis; settings: in vivo
[20] = Half life in human hepatocytes at 1 uM; format: ADME, cell-based, Hepatocyte
[21] = Half life in Sprague-Dawley rat hepatocytes at 1 uM; format: ADME, cell-based, Hepatocyte
[22] = Half life in dog hepatocytes at 1 uM; format: ADME, cell-based, Canis lupus familiaris, Hepatocyte
[23] = Half life in monkey hepatocytes at 1 uM; format: ADME, cell-based, Macaca mulatta, Hepatocyte; settings: rhesus monkey
[24] = target: T1, Sodium/glucose cotransporter 1 (Rattus norvegicus, UniProt P53790); assay: Inhibition of rat SGLT1 expressed in CHOK1 cells assessed as reduction in Na-dependent [14C]-AMG uptake preincubated for 10 mins followed by [14C]-AMG addition measured after 2 hrs by TopCount method; format: cell-based
T1 sequence (P53790 whole entry): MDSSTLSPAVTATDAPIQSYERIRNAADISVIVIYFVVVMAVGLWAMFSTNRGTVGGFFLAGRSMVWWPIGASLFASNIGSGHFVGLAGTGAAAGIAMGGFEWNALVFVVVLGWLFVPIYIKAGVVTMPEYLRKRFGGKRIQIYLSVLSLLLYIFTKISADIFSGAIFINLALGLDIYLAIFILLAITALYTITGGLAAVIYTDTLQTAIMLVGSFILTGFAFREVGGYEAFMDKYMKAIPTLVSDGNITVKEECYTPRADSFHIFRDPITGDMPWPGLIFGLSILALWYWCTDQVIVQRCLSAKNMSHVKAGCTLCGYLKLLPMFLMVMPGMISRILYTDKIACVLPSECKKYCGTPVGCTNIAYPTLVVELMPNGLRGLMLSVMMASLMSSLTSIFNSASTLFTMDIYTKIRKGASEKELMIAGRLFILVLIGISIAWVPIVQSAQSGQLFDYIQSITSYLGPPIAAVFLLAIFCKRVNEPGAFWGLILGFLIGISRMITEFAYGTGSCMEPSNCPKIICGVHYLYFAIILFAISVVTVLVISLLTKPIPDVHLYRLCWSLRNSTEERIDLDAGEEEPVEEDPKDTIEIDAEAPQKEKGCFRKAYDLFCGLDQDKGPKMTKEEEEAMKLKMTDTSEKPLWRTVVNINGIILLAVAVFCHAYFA

[25] = target: T2, Sodium/glucose cotransporter 2 (Rattus norvegicus, UniProt P53792); assay: Inhibition of rat SGLT2 expressed in CHOK1 cells assessed as reduction in Na-dependent [14C]-AMG uptake preincubated for 10 mins followed by [14C]-AMG addition measured after 2 hrs by TopCount method; format: cell-based
T2 sequence (P53792 whole entry): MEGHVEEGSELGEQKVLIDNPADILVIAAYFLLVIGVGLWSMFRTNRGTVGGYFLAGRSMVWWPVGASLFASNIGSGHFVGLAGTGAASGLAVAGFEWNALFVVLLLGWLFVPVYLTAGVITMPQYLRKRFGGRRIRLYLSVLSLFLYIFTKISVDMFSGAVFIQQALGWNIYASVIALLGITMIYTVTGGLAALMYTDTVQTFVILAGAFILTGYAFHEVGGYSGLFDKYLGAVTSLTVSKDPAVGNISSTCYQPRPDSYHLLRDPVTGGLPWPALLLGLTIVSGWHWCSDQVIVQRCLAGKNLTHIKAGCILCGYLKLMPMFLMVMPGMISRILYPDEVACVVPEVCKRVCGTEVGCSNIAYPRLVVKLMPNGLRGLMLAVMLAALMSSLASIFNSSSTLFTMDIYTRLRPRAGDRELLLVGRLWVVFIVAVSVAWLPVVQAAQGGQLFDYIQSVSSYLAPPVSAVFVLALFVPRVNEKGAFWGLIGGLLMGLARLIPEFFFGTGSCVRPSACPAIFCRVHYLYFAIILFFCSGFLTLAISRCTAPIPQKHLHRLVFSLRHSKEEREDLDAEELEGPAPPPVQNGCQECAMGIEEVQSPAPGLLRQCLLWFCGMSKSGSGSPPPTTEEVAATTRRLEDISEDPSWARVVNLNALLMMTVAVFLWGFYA

[26] = tested on: Rattus norvegicus; assay: Antidiabetic activity in Sprague-Dawley rat assessed as decrease in postprandial blood glucose level administered orally 1 hr prior to glucose challenge measured up to 120 mins by OGTT; format: functional, organism-based
[27] = tested on: Rattus norvegicus; assay: Antidiabetic activity in Sprague-Dawley rat assessed as decrease in postprandial blood glucose AUC at 1 mg/kg, po administered 1 hr prior to glucose challenge measured up to 120 mins by OGTT relative to control; format: functional; parameters: scale not given: the % may be the effect or the level left
[28] = tested on: Mus musculus; assay: Anti-hyperglycemic effect in db/db mouse assessed as decrease in fed blood glucose AUC at 10 mg/kg, po measured up to 24 hrs relative to control; format: functional; parameters: scale not given: the % may be the effect or the level left
[29] = tested on: Mus musculus; assay: In vivo inhibition of SGLT2 in db/db mouse assessed as increase in urine glucose excretion at 10 mg/kg, po after 24 hrs; format: functional, organism-based
[30] = tested on: Rattus norvegicus; assay: Anti-hyperglycemic effect in ZDF rat assessed as decrease in fed blood glucose AUC at 10 mg/kg, po measured up to 24 hrs relative to control; format: functional; parameters: scale not given: the % may be the effect or the level left
[31] = target: Voltage-gated inwardly rectifying potassium channel KCNH2 (Homo sapiens, UniProt Q12809); assay: Inhibition of human ERG at 50 uM
[32] = tested on: Salmonella typhimurium; assay: Genotoxicity in Salmonella typhimurium TA98; format: toxicity, organism-based; settings: salmonella enterica subsp. enterica serovar typhimurium

Chain of Voltage-gated inwardly rectifying potassium channel KCNH2 (Q12809 whole entry): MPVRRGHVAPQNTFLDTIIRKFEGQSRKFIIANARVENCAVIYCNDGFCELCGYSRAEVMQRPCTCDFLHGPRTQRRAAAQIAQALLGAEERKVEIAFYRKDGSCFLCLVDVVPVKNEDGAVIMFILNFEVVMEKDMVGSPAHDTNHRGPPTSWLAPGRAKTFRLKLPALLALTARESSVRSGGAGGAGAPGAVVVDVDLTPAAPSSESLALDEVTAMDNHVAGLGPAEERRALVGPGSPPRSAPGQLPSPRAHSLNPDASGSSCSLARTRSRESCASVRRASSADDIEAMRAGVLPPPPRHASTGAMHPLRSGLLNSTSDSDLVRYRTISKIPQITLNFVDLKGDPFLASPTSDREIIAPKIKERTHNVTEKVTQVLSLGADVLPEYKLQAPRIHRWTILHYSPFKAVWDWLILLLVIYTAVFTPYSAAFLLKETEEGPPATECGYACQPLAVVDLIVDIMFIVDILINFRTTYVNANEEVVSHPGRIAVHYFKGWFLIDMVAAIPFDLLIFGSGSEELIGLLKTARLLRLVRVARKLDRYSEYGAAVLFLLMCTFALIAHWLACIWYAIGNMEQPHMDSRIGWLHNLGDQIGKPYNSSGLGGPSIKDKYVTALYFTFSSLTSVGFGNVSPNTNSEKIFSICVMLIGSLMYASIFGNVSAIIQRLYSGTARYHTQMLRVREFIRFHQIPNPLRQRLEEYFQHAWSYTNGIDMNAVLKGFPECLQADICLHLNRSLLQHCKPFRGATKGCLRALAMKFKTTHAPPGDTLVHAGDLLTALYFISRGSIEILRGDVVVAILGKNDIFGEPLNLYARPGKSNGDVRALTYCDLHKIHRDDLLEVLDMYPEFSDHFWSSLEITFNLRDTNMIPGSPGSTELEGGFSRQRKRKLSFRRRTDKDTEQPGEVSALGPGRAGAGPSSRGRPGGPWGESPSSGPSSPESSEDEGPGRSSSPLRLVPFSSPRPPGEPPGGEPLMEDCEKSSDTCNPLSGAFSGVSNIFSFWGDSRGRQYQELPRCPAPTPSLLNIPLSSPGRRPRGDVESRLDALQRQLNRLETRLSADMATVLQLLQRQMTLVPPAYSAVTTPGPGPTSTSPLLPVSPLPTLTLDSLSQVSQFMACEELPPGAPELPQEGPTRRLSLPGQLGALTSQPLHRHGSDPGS

remaining at 10 min, 1 µM [1]: 95%
remaining at 10 min, 1 µM [2]: 82%
remaining at 10 min, 1 µM [3]: 66%
half-life [4]: 0.41 h
clearance [5]: 50.9 mL/min/kg
Vd [6]: 1.07 L/kg
half-life [7]: 1.44 h
Cmax [8]: 990 ng/mL
Tmax [9]: 0.3 h
AUC(0-inf) [10]: 1600 ng·h/mL
bioavailability [11]: 48.2%
half-life [12]: 7.9 h
clearance [13]: 15.5 mL/min/kg
Vd [14]: 3.05 L/kg
half-life [15]: 5.6 h
Cmax [16]: 1490 ng/mL
Tmax [17]: 1.33 h
AUC(0-inf) [18]: 6090 ng·h/mL
bioavailability [19]: 56%
half-life at 1 µM [20]: 5.4 h
half-life at 1 µM [21]: 1.2 h
half-life at 1 µM [22]: 8 h
half-life at 1 µM [23]: 2.2 h
IC50 [24]: 68 nM
IC50 [25]: 16 nM
Structure (SMILES): COc1c([C@@H]2O[C@H](CO)[C@@H](F)[C@H](O)[C@H]2O)cc(Cc2ccc3c(c2)OCCO3)c2c1CCO2
Activity [26]: Dose-dependent effect
Activity [27]: 32.4%
Activity [28]: 57.4%
inhibition [29]: Active
Activity [30]: 56.8%
inhibition (INH) [31]: Not Active
Activity [32]: Non-Toxic
